“Also recorded” adds a separate entry of the source.
Legend:
[1] = In vitro stability in mouse liver homogenate; type: in vitro ADME; conditions: mouse liver homogenate (10%, wt/vol), 10 µM
Procedure: (§1) In vitro stability studies were conducted using our previously published methods naive CD1 mouse plasma or liver homogenate. For liver homogenate stability study, washed mouse liver was diluted 10-fold in 0.1 M potassium phosphate buffer and homogenized using probe sonication. Crude homogenate was then aliquoted to 1 mL, and the homogenate was spiked with 10 µM compound. The plasma stability of the compounds was determined by spiking (10 µM) in 1 mL of plasma and incubating in an orbital shaker at 37°C. All the stability studies were conducted at predetermined times (0, 30, and 60 min), where 100 µL aliquots of the mixture in triplicate were removed and the reaction was quenched by the addition of three times the volume of ice-cold acetonitrile spiked with the internal standard (losartan: 0.5 µM). The samples were vortex-mixed for 30 s and centrifuged at 10,000g for 10 min at 4°C. An amount of 50 µL of the supernatant was diluted with 50 µL of water and transferred to a 250 µL polypropylene vial sealed with a Teflon cap. Compound disappearance was monitored over time using liquid chromatography and tandem mass spectrometry (LC–MS/MS). Paired t-tests were used to determine statistical significance between 0 and 60 min time points.

[2] = In vitro stability in mouse plasma; type: in vitro ADME
Procedure: as §1

E. coli = conditions: cited from earlier work
[3] = In vitro stability in mouse liver microsomes; type: in vitro ADME
Procedure: Figure S1. Percent BAP or pro-hpAP remaining after incubation in mouse liver microsomes (+/-NADPH) (a), mouse plasma (b), or mouse liver homogenates (c). Data shown as bar graphs in Figure 4.

UPEC strain CFT073 = assay: In vivo ascending UTI assay (prophylaxis); design: species or system Escherichia coli in C3H/HeN mice; conditions: for median log reduction of bacterial burden vs PBS-treated cohort: bladder, 48 h
Procedure: Female mice were injected subcutaneously in the flank with 2.5 mg of MPA (150 mg/mL, diluted in sterile saline) 7 days prior to inoculation ([60]). Mice were dosed vaginally with 30 µL of sterile saline lavage fluid immediately prior to inoculation. The fluid was collected, placed on a slide, heat fixed, Gram stained, and assessed to determine the estrous cycle stage of each mouse as previously described ([61]).
Six-week-old female C3H/HeN mice were inoculated with UPEC as previously described ([28]). Briefly, UPEC strain CFT073 (ATCC designation: BAA-2503) was streaked on LB agar from a frozen glycerol stock and grown overnight at 37°C. Following overnight incubation, three to five colonies were picked and subcultured into 10 mL of sterile LB, and the culture was incubated statically overnight at 37°C. The culture was diluted 1:1,000 (25 µL of culture into 25 mL of sterile LB) and incubated statically for 24 h at 37°C to promote the growth of bacteria with type-1 pili expression. The resulting 25 mL inoculum was centrifuged at 4,200 × g for 20 min at 4°C. The supernatant was removed, and the cell pellet was resuspended in 10 mL of sterile PBS. The OD600 was adjusted to 1.0 by the addition of PBS to give a cell density of approximately 4 × 10^7 to 1 × 10^8 CFUs per 50 µL, the volume of the inoculum. Cell counts were validated by plating a dilution of the inoculum solution and enumerating following overnight incubation.
Urinary catheters were assembled by threading 30G needles with 0.28 mm inner diameter polyethylene tubing to create a soft tip. Catheter tips were dipped in lubricant immediately before inoculation. During catheterization, urine was aspirated from the bladder prior to inoculation with 50 µL of UPEC inoculum, prepared as described above. Mice were housed with their drug-dosed cohort and dosed intraperitoneally according to each experiment’s dosing regimen as shown in the figures. Dosing regimen for BAP trial 1 (Fig. 7b)consisted of IP administration of BAP (300 mg/kg) 30 min before inoculation; dosing regimen for BAP trial 2 (Fig. 7c) consisted of IP administration of BAP (600 mg/kg) 30 min before inoculation followed with IP doses of BAP (300 mg/kg) at 1 and 3 hpi; dosing regimen for BAP trial 3 and the pro-hpAP trial (Fig. 7d) consisted of IP administration of BAP (600 mg/kg) or pro-hpAP (60 mg/kg) 30 min before inoculation followed with IP doses of BAP (300 mg/kg) or pro-hpAP (30 mg/kg) at 1, 3, and 24 hpi; dosing regimen 4 (Fig. S3) consisted of IP administration of BAP (600 mg/kg) 30 min before inoculation followed with IP doses of BAP (300 mg/kg) at 1, 3, 6, 10, 22, 26, and 30 hpi. Gentamicin diluted in sterile PBS was used as a positive control and was administered to mice at 10 mg/kg IP 30 min prior to inoculation in all experiments.
After 48 h, mice were anesthetized by isoflurane inhalation and sacrificed by cervical dislocation. Bladders were harvested, added to 1 mL sterile PBS, and homogenized with a hand-held homogenizer in a biosafety cabinet. Tissue homogenates were serially-diluted (five 10-fold dilutions), and 100 µL of each dilution was plated onto LB plates and enumerated after a 24 h incubation at 37°C, yielding an effective detection range of 1 × 10^2–150 × 10^8 CFU/mL. In a few cases, bacterial counts fell below the lower limit of detection or above the upper limit of detection and are reported as 0 CFU/mL or conservatively 200 × 10^8 CFU/mL, respectively.

CCCCOP(=O)(O)C(C)=O [BAP, butyl acetylphosphonate]
% remaining in liver homogenate ([1]; at 1 h): 22%
% remaining in plasma ([2]; 10 µM, 37°C, at 1 h): 79%
MICs (E. coli; under nutrient limitation): low micromolar range
% remaining in liver microsomes ([3]; at 1 h): 94%
protection against UTI (UPEC strain CFT073; BAP single 300 mg/kg IP dose 30 min prior to inoculation, 300 mg/kg): not adequate to provide protection against UPEC infection; also recorded: provides no protection against UTI
median log reduction of bacterial burden vs PBS-treated cohort (UPEC strain CFT073; BAP trial 1: 300 mg/kg IP 30 min before inoculation (1 dose)): no reduction
median log reduction of bacterial burden vs PBS-treated cohort (UPEC strain CFT073; BAP trial 2: 600 mg/kg IP 30 min before inoculation, 300 mg/kg at 1 and 3 hpi (3 doses)): 1.05 log
median log reduction of bacterial burden vs PBS-treated cohort (UPEC strain CFT073; BAP trial 3: 600 mg/kg IP 30 min before inoculation, 300 mg/kg at 1, 3 and 24 hpi (4 doses)): 1.14 log
log reduction of bacterial burden vs PBS control (UPEC strain CFT073; regimen 4: BAP 600 mg/kg IP 30 min before inoculation, 300 mg/kg at 1, 3, 6, 10, 22, 26 and 30 hpi): 1.32 log

C#CCCOP(=O)(O)C(=C)NC(=O)C(CC(C)C)NC(=O)CN (centres unmarked) [pro-hpAP]
prodrug remaining in liver homogenate ([1]; 30 min incubation): no prodrug remaining
remaining at 1 h, 10 µM ([2]; CD1, 37°C): 95%
MIC (E. coli; standard nutrient limitation conditions): ~ 20 nM
remaining at 1 h [3]: 90%
median log reduction of bacterial burden vs PBS-treated cohort (UPEC strain CFT073; pro-hpAP 60 mg/kg IP 30 min before inoculation, 30 mg/kg at 1, 3 and 24 hpi (4 doses)): 1.42 log
